The record followed here is PubChem BioAssay AID292 (DTP/NCI, 2004).

“And” between values parts separate entries of the source, which are not always exact repeats. Equal entries are not always repeated. Inconclusive results and toxic doses are left out.

This assay concerns B6C3F1 mice, ip Sarcoma M5076, median survival T/C. The assay can be described thus: NCI In Vivo Anticancer Drug Screen. Data for tumor model Sarcoma M5076 (intraperitoneal) in B6C3F1 mice. The conditions noted are these: endpoint: median survival time, schedule: Q04DX004 (ip), higher = longer survival. An outline of the steps:
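Tumour cells were transplanted into mice, compound or vehicle was given, survival of both groups was followed, and the treated figure was expressed over the control figure.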

Setting [1] is: dose: 50.0 mg/kg/injection, vehicle: saline.
Setting [2] is: dose: 25.0 mg/kg/injection, vehicle: saline with Tween-80.
The mark [3] stands for this setting: dose: 100.0 mg/kg/injection, vehicle: saline with Tween-80.
The mark [4] stands for this setting: dose: 12.5 mg/kg/injection, vehicle: saline with Tween-80.
The mark [5] stands for this setting: dose: 50.0 mg/kg/injection, vehicle: saline with Tween-80.
Where [6] appears, read: dose: 100.0 mg/kg/injection, vehicle: saline.
The mark [7] stands for this setting: dose: 200.0 mg/kg/injection, vehicle: saline with Tween-80.

With `CC(C)N1C(=O)N(Cl)C2C1N(Cl)C(=O)N2Cl` (stereo unspecified), the T/C reads like this: (dose: 6.25 mg/kg/injection, vehicle: sodium bicarbonate) 102 % of control; (dose: 12.5 mg/kg/injection, vehicle: sodium bicarbonate) 107 % of control; (dose: 25.0 mg/kg/injection, vehicle: sodium bicarbonate) 94 % of control; under setting [1], 91 % of control; (dose: 50.0 mg/kg/injection, vehicle: sodium bicarbonate) 114 % of control; (dose: 100.0 mg/kg/injection, vehicle: sodium bicarbonate) 109 % of control.
`NS(=O)(=O)OCCCCCCCOS(N)(=O)=O`: the T/C by setting is: under setting [2], 124 % of control; under setting [3], 185 % of control.
Turning to `O=C1C2CC3CC1CC(Cl)(C3)C2`, the T/C is 105 % of control under setting [4], 99 % of control under setting [2] and 94 % of control under setting [5].
Take `NCCNCC(O)CO` (stereo unspecified): the T/C was 99 % of control under setting [1]; 103 % of control under setting [6]; 103 % of control (dose: 200.0 mg/kg/injection, vehicle: saline); 99 % of control (dose: 400.0 mg/kg/injection, vehicle: saline); 95 % of control (dose: 800.0 mg/kg/injection, vehicle: saline).
`O=C[C@@H](CO)O[C@H](C=O)c1c[nH]c(=O)[nH]c1=O`: the T/C is, setting by setting: (dose: 12.5 mg/kg/injection, vehicle: saline) 111 % of control and 121 % of control; (dose: 18.0 mg/kg/injection, vehicle: saline) 110 % of control; (dose: 25.0 mg/kg/injection, vehicle: saline) 114 % of control and 123 % of control; (dose: 30.0 mg/kg/injection, vehicle: saline) 118 % of control; under setting [1], 123 % of control; under setting [6], 165 % of control. Besides, the T/C (dose: 138.8 mg/kg/injection, vehicle: saline) is 153 % of control.
As for `C[CH2][Sn]([CH2]C)([CH2]C(=O)OC)[CH2]C(=O)OC`, the T/C is, setting by setting: (dose: 1.5 mg/kg/injection, vehicle: saline with Tween-80) 96 % of control; (dose: 3.0 mg/kg/injection, vehicle: saline with Tween-80) 93 % of control; (dose: 6.0 mg/kg/injection, vehicle: saline with Tween-80) 95 % of control; (dose: 12.0 mg/kg/injection, vehicle: saline with Tween-80) 92 % of control.
For `O=C1CSC(c2cccs2)N1c1nncs1` (stereo unspecified), the T/C runs as follows: (dose: 50.0 mg/kg/injection, vehicle: Klucel (hydroxypropylcellulose) (HPC)) 102 % of control and 111 % of control; (dose: 100.0 mg/kg/injection, vehicle: Klucel (hydroxypropylcellulose) (HPC)) 98 % of control and 106 % of control; (dose: 200.0 mg/kg/injection, vehicle: Klucel (hydroxypropylcellulose) (HPC)) 98 % of control and 106 % of control; (dose: 400.0 mg/kg/injection, vehicle: Klucel (hydroxypropylcellulose) (HPC)) 111 % of control; (dose: 800.0 mg/kg/injection, vehicle: Klucel (hydroxypropylcellulose) (HPC)) 122 % of control.
Consider `CCN(CC)CCOC(=O)c1cc2cc3cc(C(=O)OCCN(CC)CC)c(=O)oc3c(C)c2oc1=O`, for which the T/C is, setting by setting: (dose: 37.5 mg/kg/injection, vehicle: saline) 100 % of control; (dose: 75.0 mg/kg/injection, vehicle: saline) 92 % of control; (dose: 150.0 mg/kg/injection, vehicle: saline) 93 % of control.
Turning to `Nc1ccc2c(c1)CN1C(=O)c3ccccc3C1=N2`, the T/C is, setting by setting: under setting [2], 104 % of control; under setting [5], 110 % of control; under setting [3], 116 % of control.
For the molecule `CCOc1c2c(nn(C)c1=O)Oc1ccccc1N2CCCN1CCOCC1`, the T/C reads like this: (dose: 7.5 mg/kg/injection, vehicle: saline with Tween-80) 92 % of control; (dose: 15.0 mg/kg/injection, vehicle: saline with Tween-80) 106 % of control; (dose: 30.0 mg/kg/injection, vehicle: saline with Tween-80) 113 % of control; (dose: 60.0 mg/kg/injection, vehicle: saline with Tween-80) 97 % of control.
Consider `C=C1C(O)C2(O)OCC34C(CC5C(C)=CC(=O)C(O)C5(C)C23)OC(=O)C(OC(=O)C/C=C/CCCCCCCC)C14` (stereo unspecified), for which the T/C (dose: 2.0 mg/kg/injection, vehicle: saline + alcohol) is 96 % of control; the T/C (dose: 2.88 mg/kg/injection, vehicle: saline + alcohol) is 116 % of control; the T/C (dose: 2.89 mg/kg/injection, vehicle: saline + alcohol) was 112 % of control; the T/C (dose: 4.0 mg/kg/injection, vehicle: saline + alcohol) was 107 % of control; the T/C (dose: 4.8 mg/kg/injection, vehicle: saline + alcohol) is 110 % of control; the T/C (dose: 13.33 mg/kg/injection, vehicle: saline + alcohol) was 124 % of control. For the same molecule, for the setting “dose: 16.0 mg/kg/injection, vehicle: saline + alcohol”, the T/C was 114 % of control.
For the molecule `O=C(O)CCCCCCCC(=O)O`, the T/C (dose: 75.0 mg/kg/injection, vehicle: distilled water + Tween-80) is 111 % of control; the T/C (dose: 150.0 mg/kg/injection, vehicle: distilled water + Tween-80) is 99 % of control; the T/C (dose: 300.0 mg/kg/injection, vehicle: distilled water + Tween-80) is 93 % of control.
`Cc1cc(=O)n(Cc2ccco2)c(=S)[nH]1`: the T/C reads like this: under setting [5], 105 % of control; under setting [3], 105 % of control; under setting [7], 100 % of control; (dose: 400.0 mg/kg/injection, vehicle: saline with Tween-80) 89 % of control; (dose: 800.0 mg/kg/injection, vehicle: saline with Tween-80) 106 % of control.
As to `CCOC(=O)c1cc(-c2ccccc2)c(=O)c(OC)nc1-c1ccccc1`, the T/C was 87 % of control (dose: 18.75 mg/kg/injection, vehicle: saline with Tween-80); 95 % of control (dose: 37.5 mg/kg/injection, vehicle: saline with Tween-80); 93 % of control (dose: 75.0 mg/kg/injection, vehicle: saline with Tween-80); 90 % of control (dose: 150.0 mg/kg/injection, vehicle: saline with Tween-80).
Consider `COc1cc2c(c3c1/c(=N/N(C)C)c1ccccc1n3C)C=CC(C)(C)O2`, for which the T/C was 110 % of control under setting [2], 105 % of control under setting [5], 110 % of control under setting [3] and 110 % of control under setting [7].
Take `COC1=C(C)C(=O)C2=C(C1=O)C(CO)N1C(C#N)C3CC4C(C1C2N1CCOC41)N3C` (stereo unspecified): the T/C reads like this: (dose: 0.12 mg/kg/injection, vehicle: acid diluted with saline) 97 % of control; (dose: 0.25 mg/kg/injection, vehicle: acid diluted with saline) 103 % of control; (dose: 0.5 mg/kg/injection, vehicle: acid diluted with saline) 100 % of control; (dose: 1.0 mg/kg/injection, vehicle: acid diluted with saline) 90 % of control and 93 % of control; (dose: 2.0 mg/kg/injection, vehicle: acid diluted with saline) 98 % of control and 109 % of control.
Take `CO[C@@H]1C2=CC=CC=C[C@H]2n2c(=O)n(C)c(=O)n21`: the T/C reads like this: (dose: 37.5 mg/kg/injection, vehicle: other) 104 % of control; (dose: 75.0 mg/kg/injection, vehicle: other) 100 % of control; (dose: 150.0 mg/kg/injection, vehicle: other) 100 % of control; (dose: 300.0 mg/kg/injection, vehicle: other) 104 % of control.
For `CCC(NC(N)=O)C(CC)NC(N)=O` (stereo unspecified), the T/C runs as follows: under setting [4], 92 % of control; under setting [2], 92 % of control.
